Patent publication US11472788B2, “Benzoimidazoles as selective inhibitors of indoleamine 2,3-dioxygenases” (BEIGENE, LTD., priority 2017, dated 2022)

What was measured:
[1] = biological target: cellular IDO1 in HeLa cells (Homo sapiens (Human), UniProt P14902); assay: HeLa Cell-Based IDO1 Kyn (Kynurenine) Production Assay; details: IFN-γ induced IDO1, 48 hours incubation, Kyn absorbance at 480 nm
Procedure, shortened: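 Compounds added to HeLa cells together with IFN-γ (100 ng/mL final) and 0.4 mM L-Trp, 48 h at 37 °C. Kynurenine in TCA-deproteinized supernatant measured colorimetrically with 4-(dimethylamino)benzaldehyde at 480 nm; IC50 from four-parameter logistic fit.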

Recombinant IDO1 = Recombinant IDO1 (Homo sapiens (Human), UniProt P14902); assay: IDO1 enzymatic assay; type: biochemical; details: 50 nM IDO1, 1.3 mM D-tryptophan, pH 7.5, read-out: Enzyme assay IC50
Description: Recombinant IDO1 was overexpressed and purified from E. coli cells with an N-terminal His tag. IDO1 enzymatic assay was carried out using a methodology similar to described in the literature (J. Biol. Chem. (1980), 255, 1339-1345). The reaction mixture contains 50 nM IDO1, 1.3 mM D-tryptophan, 5 mM L-ascorbic acid, […] methylene Blue, 0.4 mg/mL catalase and compound (or DMSO) in a buffer containing 50 mM potassium phosphate pH 7.5 and 0.1% BSA. After incubation at 24° C. for 1.5 hours, absorbance of the reaction mixture was continuously read at 321 nm to monitor the formation of N′-formylkynurenine by a FULOstar OMEGA plate reader (BMG LABTECH) for 1 hour. The enzymatic activity was determined by measuring the slope of the linear absorbance increase as a function of time. The IC50s are calculated based on remaining enzyme activity in the presence of increasing concentrations of compounds.

Chain of cellular IDO1 in HeLa cells (P14902 whole entry): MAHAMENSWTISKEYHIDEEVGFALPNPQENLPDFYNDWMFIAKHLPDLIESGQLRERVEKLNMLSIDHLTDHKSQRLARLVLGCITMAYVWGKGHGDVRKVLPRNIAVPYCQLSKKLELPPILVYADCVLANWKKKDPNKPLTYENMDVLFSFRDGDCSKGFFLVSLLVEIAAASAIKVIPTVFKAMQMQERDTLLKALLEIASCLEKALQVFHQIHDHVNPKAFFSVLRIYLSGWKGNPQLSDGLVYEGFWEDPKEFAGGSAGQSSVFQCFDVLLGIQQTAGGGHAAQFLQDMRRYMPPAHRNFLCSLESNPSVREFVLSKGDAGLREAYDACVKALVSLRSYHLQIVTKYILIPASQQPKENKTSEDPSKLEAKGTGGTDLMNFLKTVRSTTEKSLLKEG
Chain of Recombinant IDO1 (P14902 whole entry, species assumed): as the sequence (P14902 whole entry) above

| SMILES | EC50 [1] [nM] | IC50 (Recombinant IDO1) [nM] |
| --- | --- | --- |
| Clc1ccc2[nH]c(C[C@H]3CC[C@H](c4ccccc4)CC3)nc2c1 [Example A34a, 5-chloro-2-(((1r,4r)-4-phenylcyclohexyl)methyl)-1H-benzo[d]imidazole] | 168 | 8000 |
| Clc1ccc2[nH]c(C[C@H]3CC[C@@H](c4ccccc4)CC3)nc2c1 [Example A34b, 5-chloro-2-(((1s,4s)-4-phenylcyclohexyl)methyl)-1H-benzo[d]imidazole] | 87 | 4800 |
| Clc1cccc2[nH]c(C[C@H]3CC[C@@H](c4ccccc4)CC3)nc12 [Example A35, 4-chloro-2-(((1s,4s)-4-phenylcyclohexyl)methyl)-1H-benzo[d]imidazole] | 107 | > 10000 |
| Fc1cc2nc(C[C@H]3CC[C@H](c4ccccc4)CC3)[nH]c2cc1Br [Example A37a, 6-bromo-5-fluoro-2-(((1r,4r)-4-phenylcyclohexyl)methyl)-1H-benzo[d]imidazole] | 223 | > 10000 |
| Fc1cc2nc(C[C@H]3CC[C@@H](c4ccccc4)CC3)[nH]c2cc1Br [Example A37b, 6-bromo-5-fluoro-2-(((1s,4s)-4-phenylcyclohexyl)methyl)-1H-benzo[d]imidazole] | 99 | 6900 |
| Fc1ccc2nccc(C3CCN(CCc4nc5cc(Cl)ccc5[nH]4)CC3)c2c1 [Example A38, 4-(1-(2-(5-chloro-1H-benzo[d]imidazol-2-yl)ethyl)piperidin-4-yl)-6-fluoroquinoline] | 143 | > 10000 |
| Clc1ccc2[nH]c(CC3CCN(c4ccnc5ccccc45)CC3)nc2c1 [Example A40, 4-(4-((5-chloro-1H-benzo[d]imidazol-2-yl)methyl)piperidin-1-yl)quinoline] | 852 | > 10000 |
| Fc1ccc2nccc(N3CCC(Cc4nc5cc(Cl)ccc5[nH]4)CC3)c2c1 [Example A41, 4-(4-((5-chloro-1H-benzo[d]imidazol-2-yl)methyl)piperidin-1-yl)-6-fluoroquinoline] | 481 | > 10000 |
